Test results published in the NIST ThermoML archive (doi:10.1016/j.jct.2011.01.006).
“And” between values parts separate entries of the source, which are not always exact repeats. Equal entries are not always repeated. Numbers after ± are expanded uncertainties.

How the values were obtained:
[1] = molar enthalpy of vaporization or sublimation; conditions: 298.15 K; Crystal; Ebulliometric method (Recirculating still)
[2] = Crystal, Calculated from knudsen effusion weight loss

CC(=O)c1ccc([N+](=O)[O-])cc1 [1-(4-nitrophenyl)ethanone]
Conditions	molar enthalpy [kcal/mol]
[1]	23.2 ± 0.263

[2]
Conditions	vapor or sublimation pressure
302.19 K	9.1e-05 ± 5e-06 kPa and 9e-05 ± 5e-06 kPa
304.15 K	0.000121 ± 6e-06 kPa and 0.000119 ± 6e-06 kPa and 0.000118 ± 6e-06 kPa
306.07 K	0.000149 ± 7e-06 kPa and 0.000156 ± 8e-06 kPa and 0.000151 ± 8e-06 kPa
306.19 K	0.000148 ± 7e-06 kPa and 0.000151 ± 8e-06 kPa and 0.000147 ± 7e-06 kPa
308.16 K	0.000192 ± 1e-05 kPa and 0.000193 ± 1e-05 kPa and 0.00019 ± 1e-05 kPa
310.07 K	0.000239 ± 1.2e-05 kPa and 0.000235 ± 1.2e-05 kPa and 0.000243 ± 1.2e-05 kPa
312.19 K	0.000329 ± 1.6e-05 kPa and 0.000306 ± 1.5e-05 kPa and 0.000304 ± 1.5e-05 kPa
314.16 K	0.000402 ± 2e-05 kPa and 0.000397 ± 2e-05 kPa and 0.000392 ± 2e-05 kPa
316.07 K	0.000494 ± 2.5e-05 kPa and 0.000502 ± 2.5e-05 kPa and 0.000503 ± 2.5e-05 kPa
318.18 K	0.000657 ± 3.3e-05 kPa and 0.000619 ± 3.1e-05 kPa and 0.000617 ± 3.1e-05 kPa
320.13 K	0.000795 ± 4e-05 kPa and 0.000792 ± 4e-05 kPa and 0.00078 ± 3.9e-05 kPa
322.06 K	0.00096 ± 4.8e-05 kPa and 0.000984 ± 4.9e-05 kPa and 0.000991 ± 5e-05 kPa

CC(=O)c1cccc([N+](=O)[O-])c1 [1-(3-nitrophenyl)ethanone]
Conditions	molar enthalpy [kcal/mol]
[1]	23.69 ± 0.215

[2]
Conditions	vapor or sublimation pressure
300.2 K	7e-05 ± 4e-06 kPa and 6.8e-05 ± 3e-06 kPa and 6.6e-05 ± 3e-06 kPa
302.18 K	8.8e-05 ± 4e-06 kPa and 8.9e-05 ± 4e-06 kPa
304.08 K	0.000113 ± 6e-06 kPa and 0.000115 ± 6e-06 kPa
306.2 K	0.000149 ± 7e-06 kPa and 0.000148 ± 7e-06 kPa and 0.000152 ± 8e-06 kPa
308.16 K	0.000192 ± 1e-05 kPa and 0.000191 ± 1e-05 kPa and 0.000189 ± 9e-06 kPa
310.08 K	0.000238 ± 1.2e-05 kPa and 0.000241 ± 1.2e-05 kPa and 0.000249 ± 1.2e-05 kPa
312.19 K	0.000321 ± 1.6e-05 kPa and 0.000305 ± 1.5e-05 kPa and 0.000302 ± 1.5e-05 kPa
314.15 K	0.000404 ± 2e-05 kPa and 0.000392 ± 2e-05 kPa and 0.000387 ± 1.9e-05 kPa
316.08 K	0.000499 ± 2.5e-05 kPa and 0.000491 ± 2.5e-05 kPa and 0.00049 ± 2.5e-05 kPa
318.18 K	0.000669 ± 3.4e-05 kPa and 0.000628 ± 3.1e-05 kPa and 0.000621 ± 3.1e-05 kPa
320.15 K	0.000817 ± 4.1e-05 kPa and 0.000801 ± 4e-05 kPa and 0.00079 ± 4e-05 kPa
322.08 K	0.001007 ± 0.0001 kPa and 0.001 ± 5e-05 kPa and 0.000997 ± 5e-05 kPa
